Test results reported in US12139487B2, “Compounds and uses thereof” (Foghorn Therapeutics Inc., priority 2022, dated 2024).

Experiments:
[1] = biological target: T1, BRM (Homo sapiens, UniProt P51531); experiment: ATPase catalytic activity assay (ADP-Glo), BRM; format: biochemical; conditions: Table 10; for Ratio (BRG1 IC50 (μM) divided by BRM IC50 (μM)): ATPase assay, selectivity BRG1/BRM; for IC50: ATPase catalytic activity assay (ADP-Glo)
T1 construct: made in house; host or cells: High Five insect cells
In short: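 ADP-Glo luminescence measures ADP produced by BRM ATPase (30 nM) during 1 h at room temperature. ATP is 400 μM, with 20 nM salmon sperm DNA as cofactor. Buffer: 20 mM Tris pH 8, 20 mM MgCl2, 50 mM NaCl, 0.1% Tween-20, 1 mM DTT.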

[2] = biological target: T2, BRG-1 (Homo sapiens, UniProt P51532); experiment: ATPase catalytic activity assay (ADP-Glo), BRG-1; format: biochemical; conditions: Table 10, read-out: BRG1 IC50
T2 construct: made in house; host or cells: High Five insect cells
In short: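 ADP produced by BRG-1 was quantified by luciferase luminescence. A 60 min room-temperature ADP-to-ATP conversion followed a 40 min ATP-depletion step.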

T2 sequence (P51532 whole entry): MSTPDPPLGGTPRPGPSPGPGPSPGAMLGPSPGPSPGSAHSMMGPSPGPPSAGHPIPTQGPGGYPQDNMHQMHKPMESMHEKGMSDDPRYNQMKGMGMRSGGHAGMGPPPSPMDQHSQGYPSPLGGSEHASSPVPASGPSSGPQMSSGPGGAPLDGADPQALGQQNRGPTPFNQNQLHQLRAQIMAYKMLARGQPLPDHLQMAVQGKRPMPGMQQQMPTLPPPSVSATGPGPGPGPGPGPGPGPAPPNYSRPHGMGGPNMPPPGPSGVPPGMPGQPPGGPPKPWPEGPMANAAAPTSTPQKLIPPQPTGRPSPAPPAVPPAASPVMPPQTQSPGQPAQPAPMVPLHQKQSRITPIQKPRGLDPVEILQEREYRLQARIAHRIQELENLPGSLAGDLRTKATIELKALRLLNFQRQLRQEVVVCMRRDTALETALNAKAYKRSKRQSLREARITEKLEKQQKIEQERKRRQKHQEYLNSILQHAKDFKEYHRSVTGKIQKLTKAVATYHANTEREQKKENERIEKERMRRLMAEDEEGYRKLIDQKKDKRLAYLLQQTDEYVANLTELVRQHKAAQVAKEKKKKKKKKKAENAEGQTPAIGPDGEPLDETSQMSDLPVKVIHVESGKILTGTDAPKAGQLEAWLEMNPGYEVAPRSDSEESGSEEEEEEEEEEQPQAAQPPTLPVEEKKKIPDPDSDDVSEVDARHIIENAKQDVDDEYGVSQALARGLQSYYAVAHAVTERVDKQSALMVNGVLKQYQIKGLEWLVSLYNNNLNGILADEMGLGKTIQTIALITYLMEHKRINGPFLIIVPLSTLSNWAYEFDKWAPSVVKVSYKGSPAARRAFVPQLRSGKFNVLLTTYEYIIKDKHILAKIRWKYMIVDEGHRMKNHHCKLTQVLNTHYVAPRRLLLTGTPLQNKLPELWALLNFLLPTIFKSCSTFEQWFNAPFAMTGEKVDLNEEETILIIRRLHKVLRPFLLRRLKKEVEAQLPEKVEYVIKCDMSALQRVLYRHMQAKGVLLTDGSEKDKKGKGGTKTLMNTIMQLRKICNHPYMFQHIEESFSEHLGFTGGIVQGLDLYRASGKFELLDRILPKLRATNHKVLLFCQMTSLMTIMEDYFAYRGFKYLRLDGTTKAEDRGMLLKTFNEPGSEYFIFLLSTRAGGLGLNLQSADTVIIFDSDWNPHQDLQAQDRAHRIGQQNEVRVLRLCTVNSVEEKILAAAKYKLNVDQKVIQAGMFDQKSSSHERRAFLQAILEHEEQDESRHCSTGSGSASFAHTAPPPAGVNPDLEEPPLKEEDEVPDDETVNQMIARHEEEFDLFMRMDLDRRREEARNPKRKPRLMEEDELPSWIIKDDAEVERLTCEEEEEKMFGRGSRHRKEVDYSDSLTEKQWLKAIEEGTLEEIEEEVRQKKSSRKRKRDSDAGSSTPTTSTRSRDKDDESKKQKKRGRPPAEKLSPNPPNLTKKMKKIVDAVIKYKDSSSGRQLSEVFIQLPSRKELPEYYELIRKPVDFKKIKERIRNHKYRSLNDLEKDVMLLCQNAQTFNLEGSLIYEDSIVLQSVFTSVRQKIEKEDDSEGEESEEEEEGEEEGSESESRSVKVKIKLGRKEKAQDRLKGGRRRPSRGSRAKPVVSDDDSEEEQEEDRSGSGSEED
T1 sequence (P51531 whole entry): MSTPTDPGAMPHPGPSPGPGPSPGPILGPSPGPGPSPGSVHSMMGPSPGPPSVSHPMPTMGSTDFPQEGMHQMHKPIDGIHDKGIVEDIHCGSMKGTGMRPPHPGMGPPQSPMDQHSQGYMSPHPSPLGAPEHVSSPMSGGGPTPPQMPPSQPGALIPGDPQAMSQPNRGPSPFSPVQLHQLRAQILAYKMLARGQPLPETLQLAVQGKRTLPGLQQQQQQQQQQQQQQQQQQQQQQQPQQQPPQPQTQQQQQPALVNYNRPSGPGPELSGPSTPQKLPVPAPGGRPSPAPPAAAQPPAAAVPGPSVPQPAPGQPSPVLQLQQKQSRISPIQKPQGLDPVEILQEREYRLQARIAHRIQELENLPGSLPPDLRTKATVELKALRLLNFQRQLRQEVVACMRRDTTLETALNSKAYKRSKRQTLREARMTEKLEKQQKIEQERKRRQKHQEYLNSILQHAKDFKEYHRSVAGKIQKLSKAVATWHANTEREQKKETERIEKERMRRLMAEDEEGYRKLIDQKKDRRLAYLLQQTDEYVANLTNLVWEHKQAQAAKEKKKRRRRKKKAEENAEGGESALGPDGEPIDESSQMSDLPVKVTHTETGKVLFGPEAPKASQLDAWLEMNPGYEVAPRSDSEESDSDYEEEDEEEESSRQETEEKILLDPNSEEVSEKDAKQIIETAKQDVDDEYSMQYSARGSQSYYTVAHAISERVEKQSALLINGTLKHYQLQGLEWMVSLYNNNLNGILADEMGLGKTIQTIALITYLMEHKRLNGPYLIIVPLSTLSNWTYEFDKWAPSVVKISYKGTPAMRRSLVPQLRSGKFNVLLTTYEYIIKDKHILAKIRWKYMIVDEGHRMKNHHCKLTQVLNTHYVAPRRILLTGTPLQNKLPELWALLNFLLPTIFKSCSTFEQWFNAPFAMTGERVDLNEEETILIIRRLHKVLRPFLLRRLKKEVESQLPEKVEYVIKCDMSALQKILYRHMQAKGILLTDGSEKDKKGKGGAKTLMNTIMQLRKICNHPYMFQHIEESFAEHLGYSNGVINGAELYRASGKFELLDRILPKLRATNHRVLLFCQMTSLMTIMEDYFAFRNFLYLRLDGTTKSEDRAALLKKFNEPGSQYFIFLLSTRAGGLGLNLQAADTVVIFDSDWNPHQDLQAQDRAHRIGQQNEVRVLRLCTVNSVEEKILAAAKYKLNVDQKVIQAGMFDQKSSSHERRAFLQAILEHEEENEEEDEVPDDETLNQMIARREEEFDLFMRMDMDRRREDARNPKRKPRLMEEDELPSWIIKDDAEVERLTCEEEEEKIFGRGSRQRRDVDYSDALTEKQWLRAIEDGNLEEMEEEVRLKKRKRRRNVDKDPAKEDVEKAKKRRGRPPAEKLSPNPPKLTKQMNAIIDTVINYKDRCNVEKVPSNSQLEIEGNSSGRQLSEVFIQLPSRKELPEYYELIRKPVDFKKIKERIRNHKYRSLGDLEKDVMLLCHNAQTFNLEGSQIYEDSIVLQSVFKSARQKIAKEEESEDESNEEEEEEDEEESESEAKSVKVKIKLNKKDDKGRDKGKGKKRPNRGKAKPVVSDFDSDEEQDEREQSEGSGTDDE

## C[C@@H]1CN(c2cccc(-c3ccc4cnc(CNC(=O)c5cc(OC(F)F)c6c(c5)S(=O)(=O)[C@@H](F)CCO6)cc4n3)n2)C[C@H](C)O1 [Compound 316]
[1]
  Ratio (BRG1 IC50 (μM) divided by BRM IC50 (μM)): 17.77
  IC50: 18.3 nM
[2]
  IC50: 325 nM

## O=C(NCc1cc2nc(N3CCOc4ccc(C5CC5)nc43)ccc2cn1)c1cc(F)c2c(c1)S(=O)(=O)[C@@H](F)COC2 [Compound 72]
[1]
  Ratio (BRG1 IC50 (μM) divided by BRM IC50 (μM)): 21.76
  IC50: 2.8 nM
[2]
  IC50: 66.6 nM

## Cc1cc(C(=O)NCc2cc3nc(-c4cccc(OC(F)F)n4)ccc3cn2)cc2c1COC[C@H](F)S2(=O)=O [Compound 206]
[1]
  Ratio (BRG1 IC50 (μM) divided by BRM IC50 (μM)): 31.39
  IC50: 6.2 nM
[2]
  IC50: 197 nM

## C[C@@H]1CCN1c1cnc2c(c1)CCCN2c1ccc2cnc(CNC(=O)c3cc(F)c4c(c3)S(=O)(=O)[C@@H](F)CCO4)cc2n1 [Compound 236]
[1]
  Ratio (BRG1 IC50 (μM) divided by BRM IC50 (μM)): 21.61
  IC50: 7.4 nM
[2]
  IC50: 160 nM

## C[C@@H]1CCN1c1cnc2c(c1)OCCN2c1ccc2cnc(CNC(=O)c3cc(F)c4c(c3)S(=O)(=O)[C@@H](F)CCO4)cc2n1 [Compound 47]
[1]
  Ratio (BRG1 IC50 (μM) divided by BRM IC50 (μM)): 16.31
  IC50: 2.3 nM
[2]
  IC50: 54.3 nM

## COCCn1c(C)cc2c(-c3ccc4cnc(CNC(=O)c5cc(F)c6c(c5)S(=O)(=O)[C@@H](F)CCO6)cc4n3)cccc21 [Compound 2]
[1]
  Ratio (BRG1 IC50 (μM) divided by BRM IC50 (μM)): 18.80
  IC50: 0.6 nM
[2]
  IC50: 10.5 nM

## CN(CC(F)F)c1cnc2c(c1)OCCN2c1ccc2cnc(CNC(=O)c3cc(F)c4c(c3)S(=O)(=O)[C@@H](F)CCO4)cc2n1 [Compound 105]
[1]
  Ratio (BRG1 IC50 (μM) divided by BRM IC50 (μM)): 9.68
  IC50: 3.7 nM
[2]
  IC50: 36.7 nM

## O=C(NCc1cc2nc(N3CCOc4cc([C@@H]5CC5(F)F)cnc43)ccc2cn1)c1cc(F)c2c(c1)S(=O)(=O)[C@@H](F)COC2 [Compound 74]
[1]
  Ratio (BRG1 IC50 (μM) divided by BRM IC50 (μM)): 9.59
  IC50: 2.8 nM
[2]
  IC50: 26.7 nM

## O=C(NCc1cc2nc(N3CCOc4ccc(N5CCC(F)(F)C5)nc43)ccc2cn1)c1cc(F)c2c(c1)S(=O)(=O)[C@@H](F)CCO2 [Compound 119]
[1]
  Ratio (BRG1 IC50 (μM) divided by BRM IC50 (μM)): 10.33
  IC50: 4.1 nM
[2]
  IC50: 42.2 nM

## C[C@H]1C[C@@H]1c1cnc2c(c1)OCCN2c1ccc2cnc(CNC(=O)c3cc(F)c4c(c3)S(=O)(=O)[C@@H](F)CCO4)cc2n1 [Compound 223]
[1]
  Ratio (BRG1 IC50 (μM) divided by BRM IC50 (μM)): 13.44
  IC50: 7 nM
[2]
  IC50: 102 nM

## O=C(NCc1cc2cc(-c3cccc(OC(F)F)n3)ccc2nn1)c1cc(Cl)c2c(c1)S(=O)(=O)[C@@H](F)COC2 [Compound 196]
[1]
  Ratio (BRG1 IC50 (μM) divided by BRM IC50 (μM)): 38.53
  IC50: 99.8 nM
[2]
  IC50: 3840 nM

## CCOc1ccnc2c1OCCN2c1ccc2cnc(CNC(=O)c3cc(F)c4c(c3)S(=O)(=O)[C@@H](F)COC4)cc2n1 [Compound 11]
[1]
  Ratio (BRG1 IC50 (μM) divided by BRM IC50 (μM)): 9.50
  IC50: 1.4 nM
[2]
  IC50: 14.2 nM

## O=C(NCc1cc2nc(N3CCOc4cc(C(F)(F)F)cnc43)ccc2cn1)c1cc(F)c2c(c1)S(=O)(=O)[C@@H](F)CCO2 [Compound 265]
[1]
  Ratio (BRG1 IC50 (μM) divided by BRM IC50 (μM)): 11.56
  IC50: 8.7 nM
[2]
  IC50: 101 nM

## Cc1cc2c(-c3ccc4cnc(CNC(=O)c5cc(F)c6c(c5)S(=O)(=O)[C@@H](F)CCO6)cc4n3)ccc(F)c2n1C [Compound 68]
[1]
  Ratio (BRG1 IC50 (μM) divided by BRM IC50 (μM)): 13.58
  IC50: 2.7 nM
[2]
  IC50: 36.2 nM

## C[C@@H]1CN(c2cccc(-c3ccc4cnc(CNC(=O)c5ccc6c(c5)S(=O)(=O)[C@@H](F)CCN6C)cc4n3)n2)C[C@H](C)O1 [Compound 318]
[1]
  Ratio (BRG1 IC50 (μM) divided by BRM IC50 (μM)): 8.51
  IC50: 12.3 nM
[2]
  IC50: 105 nM

## O=C(NCc1cc2cc(N3CCOc4cc(C5CC5)cnc43)ccc2cn1)c1cc(F)c2c(c1)S(=O)(=O)[C@@H](F)COC2 [Compound 9]
[1]
  Ratio (BRG1 IC50 (μM) divided by BRM IC50 (μM)): 23.22
  IC50: 1.3 nM
[2]
  IC50: 30.2 nM

## O=C(NCc1cc2nc(N3CCOc4ccc(N5CC[C@@H](F)C5)nc43)ccc2cn1)c1cc(F)c2c(c1)S(=O)(=O)[C@@H](F)CCO2 [Compound 86]
[1]
  Ratio (BRG1 IC50 (μM) divided by BRM IC50 (μM)): 17.70
  IC50: 3.2 nM
[2]
  IC50: 51.2 nM

## O=C(NCc1cc2nc(-c3cccc(OC(F)(F)F)n3)ccc2cn1)c1cc(F)c2c(c1)S(=O)(=O)[C@@H](F)COC2 [Compound 307]
[1]
  Ratio (BRG1 IC50 (μM) divided by BRM IC50 (μM)): 20.42
  IC50: 10.4 nM
[2]
  IC50: 161 nM

## C[C@@H]1C[C@@H]1c1cnc2c(c1)OCCN2c1ccc2cnc(CNC(=O)c3cc(F)c4c(c3)S(=O)(=O)[C@@H](F)CCO4)cc2n1 [Compound 192]
[1]
  Ratio (BRG1 IC50 (μM) divided by BRM IC50 (μM)): 11.37
  IC50: 5.9 nM
[2]
  IC50: 66.5 nM

## COc1nc(-c2ccc3cnc(CNC(=O)c4cc(F)c5c(c4)S(=O)(=O)[C@@H](F)CCO5)cc3n2)ccc1C(F)F [Compound 143]
[1]
  Ratio (BRG1 IC50 (μM) divided by BRM IC50 (μM)): 21.43
  IC50: 4.7 nM
[2]
  IC50: 98.5 nM

## O=C(NCc1cc2nc(N3CCOc4cc(N5CC[C@H](F)[C@@H](F)C5)cnc43)ccc2cn1)c1cc(Cl)c2c(c1)S(=O)(=O)[C@@H](F)COC2 [Compound 112]
[1]
  Ratio (BRG1 IC50 (μM) divided by BRM IC50 (μM)): 14.50
  IC50: 3.9 nM
[2]
  IC50: 57.2 nM

## COc1nc(C(F)F)ccc1-c1ccc2cnc(CNC(=O)c3cc(C)c4c(c3)S(=O)(=O)[C@@H](F)COC4)cc2n1 [Compound 131]
[1]
  Ratio (BRG1 IC50 (μM) divided by BRM IC50 (μM)): 17.91
  IC50: 4.5 nM
[2]
  IC50: 70.8 nM

## O=C(NCc1cc2nc(N3CCOc4cc(C#CC5CC5)cnc43)ccc2cn1)c1cc(F)c2c(c1)S(=O)(=O)[C@@H](F)COC2 [Compound 309]
[1]
  Ratio (BRG1 IC50 (μM) divided by BRM IC50 (μM)): 11.01
  IC50: 10.5 nM
[2]
  IC50: 115 nM

## O=C(NCc1cc2nc(N3CCOc4cc(C56CC(C5)C6)cnc43)ccc2cn1)c1cc(F)c2c(c1)S(=O)(=O)[C@@H](F)COC2 [Compound 146]
[1]
  Ratio (BRG1 IC50 (μM) divided by BRM IC50 (μM)): 15.71
  IC50: 4.8 nM
[2]
  IC50: 72.9 nM

## C[C@@H]1CCN1c1cnc2c(c1)OCCN2c1ccc2cnc(CNC(=O)c3cc(Cl)c4c(c3)S(=O)(=O)[C@@H](F)COC4)cc2n1 [Compound 289]
[1]
  Ratio (BRG1 IC50 (μM) divided by BRM IC50 (μM)): 11.49
  IC50: 9.6 nM
[2]
  IC50: 115 nM

## C[C@H](NC(=O)c1cc(F)c2c(c1)S(=O)(=O)[C@@H](F)COC2)c1cc2nc(N3CCOc4cc(C5CC5)cnc43)ccc2cn1 [Compound 278]
[1]
  Ratio (BRG1 IC50 (μM) divided by BRM IC50 (μM)): 9.67
  IC50: 9.2 nM
[2]
  IC50: 75.5 nM

## C[C@@H]1CN(c2cccc(-c3ccc4cnc(CNC(=O)c5cc(Cl)c6c(c5)S(=O)(=O)[C@@H](F)COC6)cc4n3)n2)C[C@H](C)O1 [Compound 79]
[1]
  Ratio (BRG1 IC50 (μM) divided by BRM IC50 (μM)): 12.12
  IC50: 3 nM
[2]
  IC50: 34.4 nM

## C#Cc1cnc2c(c1)OCCN2c1ccc2cnc(CNC(=O)c3cc(F)c4c(c3)S(=O)(=O)[C@@H](F)CCO4)cc2n1 [Compound 281]
[1]
  Ratio (BRG1 IC50 (μM) divided by BRM IC50 (μM)): 10.16
  IC50: 9.3 nM
[2]
  IC50: 94.3 nM

## O=C(NCc1cc2cc(N3CCOc4cc(C5CC5)cnc43)ccc2cn1)c1cc(F)c2c(c1)S(=O)(=O)[C@@H](F)CCO2 [Compound 141]
[1]
  Ratio (BRG1 IC50 (μM) divided by BRM IC50 (μM)): 16.19
  IC50: 4.7 nM
[2]
  IC50: 76.3 nM

## O=C(NCc1cc2nc(-c3cccc(C4CC4)n3)ccc2cn1)c1cc(F)c2c(c1)S(=O)(=O)[C@@H](F)CCO2 [Compound 252]
[1]
  Ratio (BRG1 IC50 (μM) divided by BRM IC50 (μM)): 23.94
  IC50: 8 nM
[2]
  IC50: 219 nM
